Where two headings read alike, the source gives them in different places.
How the values were obtained:
cercariae = conditions: in tissue culture / in vitro, cited from earlier work
[1] = Disposition of 14C-DEET and 14C-Lipodeet after skin application (skin, blood, urine, bedding radioactivity)
Protocol: In this series of experiments, 11.472 mg of ^14C-DEET of ^14C-Lipodeet (in 100 μl) was applied to 5 cm^2 area of the mice abdominal skin. At different time points (15 min, 30 min, 60 min, 2 hrs., 4 hrs., 24 hrs., 48 hrs. and 72 hrs.) after application, the whole area of skin where the lipodeet had been applied was collected, underlying tissue removed and the radioactivity measured in a Beckman β-counter. Samples of blood and urine were also collected at these time points from each mouse to measure the radioactivity (n=10 for each time point). […] In this study, we made observations only up to 72 hrs. […] There are two possibilities, (1) substantial quantities of both DEET and Lipodeet are absorbed systemically through the skin within 24 hrs., or (2) both the chemicals are lost in the bedding due to direct contact of the applied area to the bedding materials. The first hypothesis was tested by measuring ^14C levels in the blood and urine in these animals.

Row | Compound | cercaricidal effect (cercariae) | also measured
1 | CCCCOC(=O)c1ccccc1C(=O)OCCCC [dibutyl phthalate] | significant cercaricidal effect | 
2 | Oc1c(Cl)cc(Cl)c(Cl)c1Cc1c(O)c(Cl)cc(Cl)c1Cl [hexachlorophene] | significant cercaricidal effects | cercaricidal effect (cercariae; listed as hexachlorophere): significant cercaricidal effect
3 | O=C(OCc1ccccc1)c1ccccc1 [benzyl benzoate] | significant cercaricidal effect | 
4 | CCN(CC)C(=O)c1cccc(C)c1 [^14C-DEET] |  | urine radioactivity ([1]; 15 minutes after application): > 5.7×10^7 cpm/ml; radio label in the blood ([1]; within 15 minutes after application): Significant quantity of the radio label was present in the blood
5 | O=C(Nc1ccc([N+](=O)[O-])cc1Cl)c1cc(Cl)ccc1O [Niclosamide] | significant cercaricidal effect | 
6 | C[C@@H]1CC[C@H]2C(C)(C)[C@H]3C[C@@]12CC[C@@]3(C)O [Cederol] | significant cercaricidal effect | 
7 | CCCCCCCCCCCC(=O)N(CC)CC [N,N-diethyl lauramide] | significant cercaricidal effect | 

From patent publication US6447801B1, “Anti-parasitic action of N,N-diethyl-m-toluamide (deet) and formulations that prolong its activity in the skin” (priority 1997, dated 2002)
